The supplement of paper PMC8967900

Columns and labels:
Assay in all cases: selective drug sensitivity score (sDSS, relative to normal bone marrow) (sDSS (score)); higher = more potent and effective on the cell line relative to normal bone marrow cells
Conditions in all cases: 72 h
[1] = system: 380
[2] = system: SUP-B15
[3] = system: MHH-CALL-4
[4] = system: PF-382
[5] = system: KASUMI-10
[6] = system: NALL-1
[7] = system: ALL-PO
[8] = system: CCRF-CEM
[9] = system: 697
[10] = system: SEM cells
[11] = system: HPB-ALL
[12] = system: JURKAT
[13] = system: LC4-1
[14] = system: P30-OHKUBO
[15] = system: PEER
[16] = system: CCRF-HSB2
[17] = system: KARPAS-45
[18] = system: MOLT-14
[19] = system: COG-LL-394h
[20] = system: COG-LL-319h
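Note: ALL cell lines in 384-well plates, five doses spanning 10,000-fold, each plate scaled between vehicle and 100 µmol/L benzalkonium chloride controls, sDSS an adapted area-under-curve metric.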

SMILES | selective drug sensitivity score [1] | selective drug sensitivity score [2] | selective drug sensitivity score [3] | selective drug sensitivity score [4] | selective drug sensitivity score [5] | selective drug sensitivity score [6] | selective drug sensitivity score [7] | selective drug sensitivity score [8] | selective drug sensitivity score [9] | selective drug sensitivity score [10] | selective drug sensitivity score [11] | selective drug sensitivity score [12] | selective drug sensitivity score [13] | selective drug sensitivity score [14] | selective drug sensitivity score [15] | selective drug sensitivity score [16] | selective drug sensitivity score [17] | selective drug sensitivity score [18] | selective drug sensitivity score [19] | selective drug sensitivity score [20]
CC[C@H](Nc1ncnc2[nH]cnc12)c1nc2cccc(F)c2c(=O)n1-c1ccccc1 [Idelalisib] (top concentration 10000 nM) | 5.74 | -2.16 | 4.04 | -0.36 | -0.26 | 3.54 | -1.06 | 3.64 | 1.84 | 3.54 | -2.16 | -1.76 | -0.16 | 7.94 | -2.16 | 1.24 | 1.54 | -2.16 | -2.16 | 1.74
NC[C@@](O)(c1ccc(Cl)cc1)c1ccc(-c2cn[nH]c2)cc1 (top concentration 10000 nM) | 13.9 | 6.78 | 1.78 | 1.28 | -1.22 | -1.22 | 3.98 | 3.88 | 9.78 | 6.58 | -0.72 | 2.58 | 1.28 | 3.68 | 3.08 | 5.28 | 2.78 | -1.22 | -1.22 | 1.48
COC[C@H](NC(=O)c1cnc(C)s1)C(=O)N[C@@H](COC)C(=O)N[C@@H](Cc1ccccc1)C(=O)[C@@]1(C)CO1 [Oprozomib] (top concentration 2500 nM) | 0.3 | 14 | 1.4 | 11.3 | 3.7 | 0.9 | 0.8 | 6.9 | 0.2 | 11.3 | -0.5 | 0.3 | 3.7 | 5.7 | 12.5 | 14.2 | 4.6 | 2.8 | 1.2 | 3.5
O=C(NC1CCNCC1)c1n[nH]cc1NC(=O)c1c(Cl)cccc1Cl [AT7519] (top concentration 10000 nM) | -4.86 | -4.56 | -1.26 | -7.16 | -2.76 | -8.16 | -14.4 | -3.46 | -2.46 | -4.76 | -10.8 | -10.7 | -4.26 | -2.96 | -3.56 | -3.46 | -4.16 | -3.86 | -1.06 | -4.26
CN1CCc2c(c3ccccc3n2Cc2ccc(C(=O)NO)cc2)C1 [Tubastatin_A] (top concentration 10000 nM) | 11.7 | 3.46 | -0.14 | 0.76 | 2.46 | 8.76 | 3.06 | 2.06 | 4.46 | 4.76 | 6.76 | 0.36 | 6.76 | 6.96 | 3.36 | 2.06 | 4.46 | 1.06 | -0.14 | 8.86
C[C@@H](Oc1ccc2[nH]nc(/C=C/c3cnn(CCO)c3)c2c1)c1c(Cl)cncc1Cl (top concentration 1000 nM) | -1.34 | 6.76 | -0.64 | -2.14 | 5.46 | -1.74 | 4.96 | -2.74 | 1.96 | 6.26 | 1.46 | -4.84 | 1.36 | 6.06 | 5.46 | 3.86 | 0.56 | -0.94 | -0.54 | 4.66
CC1(COc2ccc3c(c2)ncn3-c2ccc3cccc(N4CCC(N)CC4)c3n2)COC1 [Crenolanib] (top concentration 10000 nM) | 2.08 | 0.88 | 0.68 | 0.08 | 12.9 | 1.58 | 7.78 | -1.82 | 3.28 | 13.9 | -3.12 | -1.12 | -3.92 | -2.72 | -1.52 | 4.98 | 1.28 | -1.22 | -3.62 | -3.92
CCc1nc(C(N)=O)c(Nc2ccc(N3CCC(N4CCN(C)CC4)CC3)c(OC)c2)nc1NC1CCOCC1 [Gilteritinib] (top concentration 1000 nM) | -2.52 | -2.42 | -2.52 | -2.52 | 10.4 | -2.52 | 2.28 | -2.42 | 1.88 | 4.38 | -1.62 | -2.52 | 0.38 | 7.38 | -2.22 | 0.08 | -2.12 | -2.52 | 1.78 | 13.6
